In US8198307B2, “Imidazole derivatives having aryl piperidine substituent, method for preparation thereof and pharmaceutical compositions containing same” (Korea Research Institute of Chemical Technology, priority 2007, dated 2012):

Biological target: T1, MCH R1 (melanine-concentrating hormone receptor-1) (Homo sapiens, UniProt Q99705)
T1 construct: purchased Euroscreen, Gosselies, Belgium
Assay: Inhibitory effects on MCH R1 binding (Eu-MCH time-resolved fluorescence binding assay)
Details: concentration inhibiting the binding of MCH (Eu-MCH, 2 nM) to MCH R1 by 50% in vitro; TRF readout; test range 1 nM to 10 μM; read-out: IC50
Procedure, shortened: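 Receptor membranes were incubated 90 min at room temperature with 2 nM Eu-MCH and test compound (1 nM–10 μM final) in 25 mM HEPES pH 7.4, 5 mM MgCl2, 1 mM CaCl2, 0.5% BSA, then filter-washed. Nonspecific binding was defined with 0.5 μM MCH. Time-resolved fluorescence (ex 340/em 615 nm) gave percent inhibition of specific binding.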

T1 sequence (Q99705 whole entry, species assumed): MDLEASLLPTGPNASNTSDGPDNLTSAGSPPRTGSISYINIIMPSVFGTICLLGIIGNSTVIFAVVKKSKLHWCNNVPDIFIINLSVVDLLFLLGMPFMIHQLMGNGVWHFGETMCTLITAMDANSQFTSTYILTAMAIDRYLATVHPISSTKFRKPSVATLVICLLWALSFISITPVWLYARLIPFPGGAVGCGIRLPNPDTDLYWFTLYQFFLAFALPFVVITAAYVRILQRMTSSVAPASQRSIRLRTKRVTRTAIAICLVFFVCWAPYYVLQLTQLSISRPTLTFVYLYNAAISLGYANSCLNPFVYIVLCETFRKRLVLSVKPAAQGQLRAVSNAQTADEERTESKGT

Q: With `CC(=O)Nc1cccc(C2CCN(CCCn3c(-c4ccc(C(C)C)cc4)nc4ccccc43)CC2)c1` [Example 20, 2-(4-isopropylphenyl)-1-{3-[4-(3-acetylaminophenyl)piperidin-1-yl]propyl}-1H-benzimidazole] as the compound, how does the IC50 read?
A: 19 nM

Q: How did the IC50 turn out when `COc1ccc(Cl)cc1-c1nc2ccccc2n1CCCN1CCC(c2cccc(NC(C)=O)c2)CC1` [Example 56, 2-(5-chloro-2-methoxyphenyl)-1-{3-[4-(3-acetylaminophenyl)piperidin-1-yl]propyl}-1H-benzimidazole] was run?
A: 66 nM

Q: With `CC(=O)Nc1cccc(C2CCN(CCCn3c(-c4ccc(Cl)cc4)nc4cc(C)c(C)cc43)CC2)c1` [Example 22, 2-(4-chlorophenyl)-1-{3-[4-(3-acetylaminophenyl)piperidin-1-yl]propyl}-5,6-dimethyl-1H-benzimidazole] as the compound, how does the IC50 read?
A: 200 nM

Q: Which IC50 does the source give for `CC(C)C(=O)Nc1cccc(C2CCN(CCCn3c(-c4ccc(Cl)cc4)nc4ccccc43)CC2)c1` [Example 64, 2-(4-chlorophenyl)-1-{3-[4-(3-isobutyrylaminophenyl)piperidin-1-yl]propyl}-1H-benzimidazole] here?
A: 5 nM

Q: For `CCc1ccc(-c2nc3ccccc3n2CCCN2CCC(c3cccc(NC(C)=O)c3)CC2)cc1` [Example 77, 2-(4-ethylphenyl)-1-{3-[4-(3-acetylaminophenyl)piperidin-1-yl]propyl}-1H-benzimidazole], which IC50 is on record?
A: 60 nM

Q: With `CC(=O)Nc1cccc(C2CCN(CCCn3c(-c4ccc5c(c4)OCO5)nc4ccccc43)CC2)c1` [Example 70, 2-(benzo[1,3]dioxol-5-yl)-1-{3-[4-(3-acetylaminophenyl)piperidin-1-yl]propyl}-1H-benzimidazole] as the compound, how does the IC50 read?
A: 12 nM

Q: With `CC(=O)Nc1cccc(C2CCN(CCCn3c(-c4ccc(Cl)cc4)nc4cc(F)ccc43)CC2)c1` [Example 83, 2-(4-chlorophenyl)-1-{3-[4-(3-acetylaminophenyl)piperidin-1-yl]propyl}-5-fluoro-1H-benzimidazole] as the compound, how does the IC50 read?
A: 70 nM

Q: How did the IC50 turn out when `Cc1ccc(C(=O)Nc2cccc(C3CCN(CCCn4c(-c5ccc(Cl)cc5)nc5ccccc54)CC3)c2)cc1` [Example 67, 2-(4-chlorophenyl)-1-{3-[4-(3-(4-methylbenzoylamino)phenyl)piperidin-1-yl]propyl}-1H-benzimidazole] was run?
A: > 10000 nM

Q: How did the IC50 turn out when `CC(=O)Nc1cccc(C2CCN(CCCCn3c(-c4ccc(Cl)cc4)nc4ccccc43)CC2)c1` [Example 6, 2-(4-chlorophenyl)-1-{4-[4-(3-acetylaminophenyl)piperidin-1-yl]butyl}-1H-benzimidazole] was run?
A: 1 nM

Q: `CC(=O)Nc1cccc(C2CCN(CCCn3c(-c4ccccc4)nc4nc(C)c(Br)cc43)CC2)c1` [Example 74] was tested. Which IC50 did it give?
A: 680 nM
